Results on two compounds are retold here after article PMC7807051, “Modulation of cAMP metabolism for CFTR potentiation in human airway epithelial cells” (Scientific Reports, 2021).

Molecules are shown by their SMILES.

Test [1] deals with CFTR. On the set-up: method as in PMID 24106801. The following applies: Calu-3 cells; cited from earlier work.
Test [2] concerns the target T1, CFTR (Homo sapiens, UniProt P13569).
T1 construct: endogenous in cells; host or cells: primary human bronchial epithelial cells from two donors, air–liquid interface
As to the kind of experiment: In vitro CFTR membrane potential assay in primary human bronchial epithelial cells (air–liquid interface). Type of test: cell-based. The following applies: primary HBECs, one donor sample; forskolin 10 μM; VX-770 1 μM, MK-571 1.8 μM, Roflumilast 1 μM. As to the method:
(§1) An in vitro CFTR membrane potential assay was performed on Calu-3 cells and primary human bronchial epithelial cells, from two independent donors, cultured at 37 °C as previously described. All human samples were collected from consented individuals under ethics approval granted by Hamilton Integrated Research Ethics Board (Project Number 5099-T).
Calu-3 cells were grown for 21 days on 96-well plates and primary HBECs were grown for 14 days under air–liquid interface conditions on collagen-coated (Sigma-Aldrich) 6.5 mm Transwell Inserts (Corning). All cells were washed with HBSS prior to experimental conditions. […] CFTR activity measurements are fluorescent readouts for detecting ion channel activity. CFTR inhibition was performed with CFTRinh-172 (10 μM) for all experiments to attribute changes in fluorescence as CFTR channel activity. […]
For primary HBECs, measurements were taken during baseline (8 min), drug additions (40 min), and CFTR inhibitions (18 min). cAMP elevation was performed using forskolin (10 μM). […] CFTR activity was determined by averaging six independent measurements within a single Transwell insert. […]
For in vitro CFTR membrane potential assays, in Calu-3 cells, values were normalized to the averaged baseline over averaged vehicle (DMSO) control of all biological replicates. SD was calculated using data from biological replicates (n = 4–8). […]

Test [3] deals with CFTR. On the set-up: method as in PMID 24106801. The following applies: primary non-CF HBECs; cited from earlier work.
Test [4] concerns CFTR. The test can be described thus: In vitro CFTR membrane potential assay in Calu-3 cells. Type of test: cell-based, human. The following applies: Calu-3. As to the method: as §1
Calu-3 cells were grown for 21 days on 96-well plates and primary HBECs were grown for 14 days under air–liquid interface conditions on collagen-coated (Sigma-Aldrich) 6.5 mm Transwell Inserts (Corning). All cells were washed with HBSS prior to experimental conditions. After washing with HBSS, cells were loaded with BLUE Membrane Potential Dye (Molecular Devices, #R8042) dissolved in 37 °C chloride-free buffer (NMDG Gluconate Buffer – 150 mM NMDG-gluconate, 3 mM KCl, 10 mM HEPES, pH 7.35, 300 mOsm). Immediately after dye loading, CFTR activity measurements were taken. CFTR activity measurements are fluorescent readouts for detecting ion channel activity. CFTR inhibition was performed with CFTRinh-172 (10 μM) for all experiments to attribute changes in fluorescence as CFTR channel activity. This assay has been validated using proof of concept studies where results obtained from this assay were able to recapitulate findings obtained from direct measurements of ion channel activity using Ussing chambers. At the end of this assay, raw data was exported for statistical analysis.
For Calu-3 cells, measurements were taken during baseline (40 min), cAMP elevation (30 min), and CFTR inhibition (20 min). cAMP elevation was performed using forskolin or isoproterenol (0.0005–50 μM). For assays with ABCC4 or PDE-4 inhibitors, a pre-incubation with the inhibitors (30 min) in the plate reader was performed prior to cAMP elevation. CFTR modulator VX-770 was used at 1 μM. CFTR activity was determined by dividing a single membrane potential peak measurement after the ABCC4 or PDE-4 inhibition and cAMP elevation additions to the stabilized baseline over DMSO control.
For in vitro CFTR membrane potential assays, in Calu-3 cells, values were normalized to the averaged baseline over averaged vehicle (DMSO) control of all biological replicates. SD was calculated using data from biological replicates (n = 4–8). An area under the curve (AUC), half-maximal concentration (EC50), […] (Emax), and baseline analysis was performed for each individual replicate then averaged together. The AUC analysis is an aggregate measure of sensitivity and maximal response, allowing for the observation of the total net responsiveness of the cells. The AUC analysis was done by normalizing the individual replicates to the bottom most value of the averaged vehicle control. In primary HBECs, six independent measurements were taken within a single Transwell insert. The value is the average of at least six measurements. These values were normalized to the averaged baseline over the averaged vehicle (DMSO) control. SD was calculated by treating the six measurements as independent, with additional technical replicates (n = 6–18). An AUC and max peak analysis were performed for each measurement, then averaged together. The max peak analysis was the max CFTR activity achieved during the drug addition step.
In order to compare the independent experiments performed, a fold-change analysis using individual AUC, EC50, and Emax, determined from their respective concentration–response curves, was performed and was normalized to the averaged DMSO vehicle control. A one-way ANOVA with subsequent post-hoc test or a paired t-test was performed. Statistical analysis was performed using GraphPad Prism 6.

The next test concerns G551D-CFTR. Set-up: method as in PMID 21083385, PMID 22047557. The following applies: G551D-CFTR variants; various doses and treatment durations; cited from earlier work.
Where [5] appears, read: forskolin (FSK) curve with agent vs DMSO control.
[6] abbreviates: forskolin (FSK) curve with agent vs DMSO control, VX-770 1 μM, MK-571 1.8 μM, Ceefourin-1 4.8 μM, Roflumilast 1 μM, Rolipram 10 μM, IBMX 100 μM.
[7] abbreviates: isoproterenol (ISO) curve with agent vs DMSO control.
Where [8] appears, read: isoproterenol (ISO) curve with agent vs DMSO control, same agent concentrations as E5.

T1 sequence (P13569 whole entry): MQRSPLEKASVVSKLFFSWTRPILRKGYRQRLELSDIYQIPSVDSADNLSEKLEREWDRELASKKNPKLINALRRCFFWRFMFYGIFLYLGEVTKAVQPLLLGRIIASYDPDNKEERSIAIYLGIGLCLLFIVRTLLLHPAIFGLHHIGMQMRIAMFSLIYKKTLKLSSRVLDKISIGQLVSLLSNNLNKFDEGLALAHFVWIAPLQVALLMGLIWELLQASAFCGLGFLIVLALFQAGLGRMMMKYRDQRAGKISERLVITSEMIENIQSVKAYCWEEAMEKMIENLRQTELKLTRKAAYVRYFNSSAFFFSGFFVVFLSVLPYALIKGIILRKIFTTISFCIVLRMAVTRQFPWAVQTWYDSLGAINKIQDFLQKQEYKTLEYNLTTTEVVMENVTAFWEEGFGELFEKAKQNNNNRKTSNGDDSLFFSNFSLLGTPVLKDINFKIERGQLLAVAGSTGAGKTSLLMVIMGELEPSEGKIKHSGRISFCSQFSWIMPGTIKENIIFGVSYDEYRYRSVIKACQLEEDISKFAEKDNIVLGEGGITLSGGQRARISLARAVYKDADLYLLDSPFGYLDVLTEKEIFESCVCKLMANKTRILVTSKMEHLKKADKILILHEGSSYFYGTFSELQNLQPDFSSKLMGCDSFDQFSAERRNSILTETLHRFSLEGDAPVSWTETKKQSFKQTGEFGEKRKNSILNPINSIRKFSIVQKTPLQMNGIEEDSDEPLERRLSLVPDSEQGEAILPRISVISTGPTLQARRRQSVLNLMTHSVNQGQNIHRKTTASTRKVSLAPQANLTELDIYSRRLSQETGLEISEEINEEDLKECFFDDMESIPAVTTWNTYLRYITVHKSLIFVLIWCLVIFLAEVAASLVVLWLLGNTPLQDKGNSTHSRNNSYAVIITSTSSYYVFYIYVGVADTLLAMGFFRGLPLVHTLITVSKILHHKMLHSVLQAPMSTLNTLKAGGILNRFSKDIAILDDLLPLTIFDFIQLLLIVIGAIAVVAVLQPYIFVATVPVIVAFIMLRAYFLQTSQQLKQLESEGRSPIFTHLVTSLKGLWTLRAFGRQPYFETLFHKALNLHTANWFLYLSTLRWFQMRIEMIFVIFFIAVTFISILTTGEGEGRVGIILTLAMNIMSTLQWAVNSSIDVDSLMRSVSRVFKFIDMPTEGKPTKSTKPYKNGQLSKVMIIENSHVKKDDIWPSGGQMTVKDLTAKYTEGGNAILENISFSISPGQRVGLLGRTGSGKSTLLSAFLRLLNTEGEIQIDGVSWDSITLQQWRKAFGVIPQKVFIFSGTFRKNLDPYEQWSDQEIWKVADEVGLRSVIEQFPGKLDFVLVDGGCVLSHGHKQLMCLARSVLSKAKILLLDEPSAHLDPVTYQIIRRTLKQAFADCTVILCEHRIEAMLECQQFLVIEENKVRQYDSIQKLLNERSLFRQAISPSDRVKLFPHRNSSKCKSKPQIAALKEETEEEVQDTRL

As for `O=C(Nc1c(Cl)cncc1Cl)c1ccc(OC(F)F)c(OCC2CC2)c1` [Roflumilast], the “CFTR potentiation beyond max FSK stimulation” value in the test with CFTR [1] is “did not potentiate CFTR activity beyond the max stimulation that resulted from the addition of FSK”. Further, at CFTR [2], the “AUC of CFTR activity time course compared with VX-770 alone” value is reported as “significantly greater than VX-770 alone” and the “max peak of CFTR activity compared with VX-770 alone” value was “significantly greater than VX-770 alone”. In addition, the CFTR activation result with CFTR [3] is recorded as “led to CFTR activation”. In the test with CFTR [4] (setting [5]), the “Baseline of concentration–response curve, CFTR activity” value (from here on “Baseline … CFTR activity”) is recorded as “not different”; the “EC50 of concentration–response curve, CFTR activity” value (shortened to “EC50”) is “not different”; the “Emax of concentration–response curve, CFTR activity” value (“Emax” below) is given as “not different”. Besides, the “AUC of concentration–response curve, CFTR activity” value (from here on “AUC of concentration–response curve”) in the test on CFTR [4] (setting [6]) was “not FSK”. Also, in the test on CFTR [4] (setting [7]), the “Baseline … CFTR activity” value is reported as “not different”; the “EC50” value is “not different”; the “Emax” value was “not different”. The “AUC of concentration–response curve” value in the test on CFTR [4] (setting [8]) is on record as “significant increases”.

Regarding `CC(C)(C)c1cc(C(C)(C)C)c(NC(=O)c2c[nH]c3ccccc3c2=O)cc1O` [VX-770, ivacaftor], in the test with G551D-CFTR, the “predicted forced expiratory volume in 1 s (FEV1) from baseline” value is given as “significant increases”. Besides, the “Fold-change of AUC relative to vehicle control” value with CFTR [4] (FSK stimulation, comparison across independent experiments) is reported as “superior to either ABCC4 (MK-571) or PDE-4 (Roflumilast) inhibition alone”. In addition, in the test on CFTR [4] (setting [5]), the “Baseline … CFTR activity” value is “no significant changes”; the “EC50” value is listed as “increased the sensitivity”; the “Emax” value was “remained unchanged”. Further, the “AUC of concentration–response curve” value in the test on CFTR [4] (setting [6]) is “significant increase”. In addition, in the test on CFTR [4] (setting [7]), the “Baseline … CFTR activity” value is given as “significant increase”; the “EC50” value is “no changes”; the “Emax” value is on record as “no changes”. Further, in the test on CFTR [4] (setting [8]), the “AUC of concentration–response curve” value is on record as “significant increase”.
